Values quoted from earlier work, collected in patent publication US7696365B2 (Chugai Seiyaku Kabushiki Kaisha, priority 2003, dated 2010).

Assays:
[1] = system: human breast cancer cells
[2] = system: muscle (M) isoform of CPT-I; settings: read-out: IC50 of malonyl-CoA inhibition, muscle isoform

IC50 [2] | SMILES | malonyl-CoA level ([1]; breast carcinoma cells) | antitumor activity ([1]; human breast cancer cells and xenografts)
– | CCCCCCCCCCCCCCOc1ccc(C(=O)O)o1 [TOFA, 5-(tetradecyloxy)-2-furoic acid] | 60 % of the control | does not show any antitumor activity
30 nM | CC(C)(COP(=O)(O)OP(=O)(O)OC[C@H]1O[C@@H](n2cnc3c(N)ncnc32)[C@H](O)[C@@H]1OP(=O)(O)O)[C@@H](O)C(=O)NCCC(=O)NCCSC(=O)CC(=O)O [malonyl-CoA, Malonyl-CoA] | – | –
